Test results reported in article doi:10.1101/2024.12.18.629081v1 (biorxiv, 2024).

Key:
FGFR3 = FGFR3 (Homo sapiens, UniProt P22607); assay: SPR; type: binding
GCK = molecular target: T1, GCK (Homo sapiens, UniProt P35557); assay: G6PDH-coupled activation assay, A340; type: biochemical
T1 sequence (P35557 1-465): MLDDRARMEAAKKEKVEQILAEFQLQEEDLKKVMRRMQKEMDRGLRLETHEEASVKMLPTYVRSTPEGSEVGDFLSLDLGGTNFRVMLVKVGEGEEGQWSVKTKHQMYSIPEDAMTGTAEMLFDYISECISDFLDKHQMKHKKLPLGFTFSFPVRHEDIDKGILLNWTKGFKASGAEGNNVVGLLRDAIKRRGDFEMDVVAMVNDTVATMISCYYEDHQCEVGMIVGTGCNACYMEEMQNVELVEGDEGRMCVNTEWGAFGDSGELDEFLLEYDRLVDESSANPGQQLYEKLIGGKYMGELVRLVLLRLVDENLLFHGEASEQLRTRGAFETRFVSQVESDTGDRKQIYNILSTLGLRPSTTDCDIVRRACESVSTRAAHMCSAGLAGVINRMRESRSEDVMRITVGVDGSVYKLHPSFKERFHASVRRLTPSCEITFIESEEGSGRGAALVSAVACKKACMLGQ

Chain of FGFR3 (P22607 449-759): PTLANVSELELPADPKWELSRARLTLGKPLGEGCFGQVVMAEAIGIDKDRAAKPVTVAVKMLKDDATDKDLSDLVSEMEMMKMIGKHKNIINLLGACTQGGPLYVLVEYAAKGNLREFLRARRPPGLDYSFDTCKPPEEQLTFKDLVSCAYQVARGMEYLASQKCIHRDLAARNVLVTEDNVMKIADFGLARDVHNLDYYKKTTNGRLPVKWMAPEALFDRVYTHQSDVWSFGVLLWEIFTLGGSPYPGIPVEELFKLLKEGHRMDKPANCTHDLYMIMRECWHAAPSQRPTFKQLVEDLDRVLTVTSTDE

For `Nc1nc2c(s1)[C@H](c1ccc(F)cc1)CC(=O)N2` [F4], the Kd (FGFR3) was 599 µM.
`Nc1nc2c(s1)[C@H](c1ccccc1OCc1ccc(Cl)cc1)CC(=O)N2` [F42] gave a Kd (FGFR3) of 61.4 µM.
In the case of `CNc1ccc(Sc2nnc[nH]2)nc1C(=O)Nc1nccs1` [G0], the EC50 (GCK) is reported as 1.81 ± 0.28 µM.
With `Cc1cccc(Nc2ccc(Sc3nnc[nH]3)nc2C(=O)Nc2nccs2)c1` [G11] the EC50 (GCK) was 0.15 µM.
